Experimental data reported in EPA's ToxRefDB 2.

Key:
rat [1] = settings: Sub-acute repeat dose toxicity, sprague dawley, Oral, Gavage/Intubation, dose end: 28 day, group: systemic
rat [2] = settings: Multigenerational reproductive toxicity study, sprague dawley, Oral, Gavage/Intubation, dose end: 1 generation
dog [3] = settings: Chronic toxicity, beagle, Oral, Feed, dose end: 12 month
rat [4] = settings: Subchronic oral toxicity in rodents, sprague dawley, Feed, dose end: 3 month
mouse [5] = settings: Subchronic oral toxicity in rodents, cd1, Feed, dose end: 3 month, group: systemic
mouse [6] = settings: Combined chronic toxicity/carcinogenicity, b6c3f1, Oral, Feed, dose end: 2 year
dog [7] = settings: Subchronic oral toxicity in nonrodent, beagle, Feed, dose end: 13 week
dog [8] = settings: Subchronic oral toxicity in nonrodent, beagle, Feed, dose end: 90 day
rat [9] = settings: Prenatal developmental toxicity study, wistar, Oral, Gavage/Intubation, dose end: 15 GD
rat [10] = settings: Multigenerational reproductive toxicity study, sprague dawley, Oral, Feed, dose end: 2 generation
rat [11] = settings: Combined chronic toxicity/carcinogenicity, sprague dawley, Oral, Feed, dose end: 28 month
rat [12] = settings: Subchronic oral toxicity in rodents, Feed, dose end: 90 day, group: systemic
mouse [13] = settings: Subchronic oral toxicity in rodents, b6c3f1, Feed, dose end: 13 week, group: systemic, systemic / organ weight / liver / nos + systemic / pathology microscopic / liver / cellular alteration
rat [14] = settings: Subchronic oral toxicity in rodents, fischer, Feed, dose end: 13 week, group: systemic, systemic / organ weight / liver / nos + systemic / pathology microscopic / liver / [other] + systemic / organ weight / liver / relative to …
dog [15] = settings: Chronic toxicity, beagle, Oral, Feed, dose end: 12 month, group: systemic
dog [16] = settings: Subchronic oral toxicity in nonrodent, beagle, Feed, dose end: 6 month, group: systemic
rat [17] = settings: Combined chronic toxicity/carcinogenicity, fischer, Oral, Feed, dose end: 2 year, group: systemic
rat [18] = settings: Combined chronic toxicity/carcinogenicity; fischer; Oral; Feed; dose end: 2 year; group: systemic; systemic / pathology microscopic / liver / hypertrophy + systemic / in life observation / clinical signs / hematuria + systemic / pathology …
mouse [19] = settings: Carcinogenicity, b6c3f1, Oral, Feed, dose end: 2 year, group: systemic
[20] = systemic / organ weight / liver / relative to body weight + systemic / clinical chemistry / bilirubin / total bilirubin + systemic / in life…
[21] = group: offspring, systemic / in life observation / body weight / offspring (pup) weight
[22] = group: parental, systemic / organ weight / heart / relative to body weight + systemic / organ weight / kidney / relative to body weight + systemic / organ …
[23] = group: reproductive, reproductive / offspring survival early / birth index / live birth index
[24] = group: cholinesterase, cholinesterase / cholinesterase / cholinesterase / erythrocyte cholinesterase (che) + cholinesterase / cholinesterase / cholinesterase / …
[25] = group: systemic, systemic / organ weight / liver / absolute
[26] = group: cholinesterase, cholinesterase / cholinesterase / cholinesterase / erythrocyte cholinesterase (che)
[27] = group: systemic, systemic / clinical chemistry / albumin-globulin ratio / albumin-globulin ratio
[28] = group: systemic, systemic / hematology / hemoglobin (hgb) / hemoglobin (hgb) + systemic / pathology microscopic / stomach / acanthosis + systemic / pathology…
[29] = systemic / in life observation / body weight / body weight + systemic / organ weight / brain / relative to body weight + systemic / organ …
[30] = group: cholinesterase, cholinesterase / cholinesterase / cholinesterase / brain cholinesterase (che) + cholinesterase / cholinesterase / cholinesterase / …
[31] = group: systemic, systemic / clinical chemistry / cholesterol / cholesterol
[32] = group: systemic, systemic / clinical chemistry / cholesterol / cholesterol + systemic / in life observation / body weight / body weight + systemic / in life …
[33] = group: cholinesterase, cholinesterase / cholinesterase / cholinesterase / plasma cholinesterase (che) + cholinesterase / cholinesterase / cholinesterase / …
[34] = group: systemic, systemic / in life observation / body weight / body weight gain + systemic / in life observation / clinical signs / emaciation + systemic / …
[35] = group: systemic, systemic / in life observation / clinical signs / pulse/pressure
[36] = group: developmental, systemic / in life observation / body weight / fetal weight + developmental / developmental malformation / bone / delayed ossification + …
[37] = group: maternal, reproductive / reproductive performance / postimplantation loss / postimplantation loss + reproductive / reproductive performance / …
[38] = group: offspring, developmental / offspring survival late / viability index / viability index
[39] = group: parental, systemic / in life observation / body weight / body weight gain
[40] = group: systemic, systemic / hematology / erythrocyte (rbc) count differential / erythrocyte (rbc) + systemic / hematology / hematocrit (hct) / hematocrit (…
[41] = systemic / organ weight / liver / nos + systemic / pathology microscopic / liver / [other]
[42] = systemic / organ weight / liver / nos + systemic / pathology microscopic / liver / [other] + systemic / organ weight / kidney / nos
[43] = systemic / organ weight / liver / relative to body weight + systemic / in life observation / body weight / body weight gain + systemic / …
[44] = systemic / organ weight / liver / absolute + systemic / organ weight / liver / relative to body weight
[45] = systemic / organ weight / liver / absolute + systemic / organ weight / liver / relative to body weight + systemic / clinical chemistry / …
[46] = systemic / in life observation / body weight / body weight + systemic / in life observation / mortality / mortality
[47] = systemic / organ weight / kidney / nos + systemic / organ weight / kidney / relative to body weight

In the case of O=[N+]([O-])c1ccc(O)c([N+](=O)[O-])c1 [2,4-Dinitrophenol], the LEL (rat [1]; systemic / clinical chemistry / bilirubin / total bilirubin) is reported as 10 mg/kg/day, the NEL (rat [1]; systemic / clinical chemistry / bilirubin / total bilirubin + systemic / in life observation / clinical signs / [other] + systemic / in life…) is reported as 3 mg/kg/day and the LOAEL (rat [1]; [20]) is reported as greater than 80 mg/kg/day. For the same compound, the NOAEL (rat [1]; [20]) was no less than 80 mg/kg/day, the LEL (rat [2]; [21]) was 30 mg/kg/day and the LOAEL (rat [2]; [21]) was greater than 30 mg/kg/day. For the same compound, the NEL (rat [2]; [21]) was 10 mg/kg/day, the NOAEL (rat [2]; [21]) was no less than 30 mg/kg/day and the LEL (rat [2]; [22]) was 30 mg/kg/day. It also gave an LOAEL (rat [2]; [22]) greater than 30 mg/kg/day, an NEL (rat [2]; [22]) of 10 mg/kg/day and an NOAEL (rat [2]; [22]) of no less than 30 mg/kg/day. It also gave an LEL (rat [2]; [23]) of 30 mg/kg/day, an LOAEL (rat [2]; [23]) greater than 30 mg/kg/day and an NEL (rat [2]; [23]) of 10 mg/kg/day. The NOAEL (rat [2]; [23]) was no less than 30 mg/kg/day.
Work on COP(=S)(OC)Oc1ccc([N+](=O)[O-])cc1 [Methyl parathion] yielded an LEL (dog [3]; [24]) of 0.03 mg/kg/day, an LOAEL (dog [3]; [24]) of 0.03 mg/kg/day and an NEL (dog [3]; [24]) of less than 0.03 mg/kg/day. For the same compound, the NOAEL (dog [3]; [24]) was less than 0.03 mg/kg/day, the LEL (dog [3]; [25]) was 0.3 mg/kg/day and the LOAEL (dog [3]; [25]) was greater than 0.3 mg/kg/day. For the same compound, the NEL (dog [3]; [25]) was 0.1 mg/kg/day, the NOAEL (dog [3]; [25]) was no less than 0.3 mg/kg/day and the LEL (rat [4]; [26]) was 1.24 mg/kg/day. It also gave an LOAEL (rat [4]; [26]) of 1.24 mg/kg/day, an NEL (rat [4]; [24]) of 0.12 mg/kg/day and an NOAEL (rat [4]; [24]) of 0.12 mg/kg/day. The LEL (rat [4]; [27]) was 0.16 mg/kg/day, the NEL (rat [4]; [27]) was less than 0.16 mg/kg/day and the LOAEL (rat [4]; [28]) was 1.24 mg/kg/day. For the same compound, the NOAEL (rat [4]; [28]) was 0.12 mg/kg/day, the LOAEL (mouse [5]; systemic / in life observation / body weight / body weight) was 13.5 mg/kg/day and the LEL (mouse [5]; [29]) was 13.5 mg/kg/day. It also gave an NEL (mouse [5]; [29]) of 6.5 mg/kg/day, an NOAEL (mouse [5]; [29]) of 6.5 mg/kg/day and an LEL (mouse [6]; [30]) of 1.6 mg/kg/day. The LOAEL (mouse [6]; [30]) was 1.6 mg/kg/day, the NEL (mouse [6]; [30]) was 0.2 mg/kg/day and the NOAEL (mouse [6]; [30]) was 0.2 mg/kg/day. It also gave an LEL (mouse [6]; [31]) of 2.1 mg/kg/day, an LOAEL (mouse [6]; [31]) of 2.1 mg/kg/day and an NEL (mouse [6]; [32]) of 0.3 mg/kg/day. For the same compound, the NOAEL (mouse [6]; [32]) was 0.3 mg/kg/day, the LEL (dog [7]; [33]) was 3 mg/kg/day and the LOAEL (dog [7]; [33]) was 3 mg/kg/day. The NEL (dog [7]; [33]) was 0.3 mg/kg/day, the NOAEL (dog [7]; [33]) was 0.3 mg/kg/day and the LOAEL (dog [7]; group: systemic, systemic / in life observation / body weight / body weight gain) was 3 mg/kg/day. The LEL (dog [7]; [34]) was 3 mg/kg/day, the NOAEL (dog [7]; [34]) was 0.3 mg/kg/day and the NEL (dog [7]; group: systemic, systemic / in life observation / clinical signs / emaciation + systemic / in life observation / clinical signs / dehydration + systemic / in…) was 0.3 mg/kg/day. The LEL (dog [8]; [24]) was 1 mg/kg/day, the LOAEL (dog [8]; [24]) was 1 mg/kg/day and the NEL (dog [8]; [24]) was 0.3 mg/kg/day. The NOAEL (dog [8]; [24]) was 0.3 mg/kg/day, the LEL (dog [8]; [35]) was 3 mg/kg/day and the LOAEL (dog [8]; [35]) was 3 mg/kg/day. For the same compound, the NEL (dog [8]; [35]) was 1 mg/kg/day, the NOAEL (dog [8]; [35]) was 1 mg/kg/day and the LEL (rat [9]; [30]) was 3 mg/kg/day. The LOAEL (rat [9]; [30]) was greater than 3 mg/kg/day, the NOAEL (rat [9]; [30]) was no less than 3 mg/kg/day and the LOAEL (rat [9]; group: developmental, systemic / in life observation / body weight / fetal weight) was 3 mg/kg/day. The LEL (rat [9]; [36]) was 3 mg/kg/day, the NEL (rat [9]; [36]) was 1 mg/kg/day and the NOAEL (rat [9]; [36]) was 1 mg/kg/day. For the same compound, the LEL (rat [9]; [37]) was 3 mg/kg/day, the LOAEL (rat [9]; [37]) was 3 mg/kg/day and the NEL (rat [9]; [37]) was 1 mg/kg/day. For the same compound, the NOAEL (rat [9]; [37]) was 1 mg/kg/day, the LEL (rat [10]; [38]) was 2 mg/kg/day and the LOAEL (rat [10]; [38]) was 2 mg/kg/day. The NEL (rat [10]; [38]) was 0.38 mg/kg/day, the NOAEL (rat [10]; [38]) was 0.38 mg/kg/day and the LOAEL (rat [10]; [39]) was 2.3 mg/kg/day. It also gave an NEL (rat [10]; [39]) of 0.44 mg/kg/day, an NOAEL (rat [10]; [39]) of 0.44 mg/kg/day and an LEL (rat [10]; group: parental, systemic / in life observation / body weight / body weight gain + systemic / in life observation / body weight / body weight) of 2.3 mg/kg/day. The LOAEL (rat [11]; [30]) was greater than 2.21 mg/kg/day, the NEL (rat [11]; [30]) was 0.02 mg/kg/day and the NOAEL (rat [11]; [30]) was no less than 2.21 mg/kg/day. It also gave an LEL (rat [11]; [26]) of 0.21 mg/kg/day, an LEL (rat [11]; [40]) of 0.21 mg/kg/day and an LOAEL (rat [11]; [40]) of 0.21 mg/kg/day. The NEL (rat [11]; [40]) was 0.02 mg/kg/day and the NOAEL (rat [11]; [40]) was 0.02 mg/kg/day.
Compound Nc1c(Cl)c(Cl)nc(C(=O)O)c1Cl [Picloram] has an LEL (rat [12]; [41]) of 150 mg/kg/day, an LOAEL (rat [12]; [41]) of 150 mg/kg/day and an NEL (rat [12]; [42]) of 50 mg/kg/day. For the same compound, the NOAEL (rat [12]; [42]) was 50 mg/kg/day, the LEL (mouse [13]) was 1000 mg/kg/day and the LOAEL (mouse [13]) was 1000 mg/kg/day. It also gave an NEL (mouse [13]) of less than 1000 mg/kg/day, an NOAEL (mouse [13]) of less than 1000 mg/kg/day and an LEL (rat [14]) of 150 mg/kg/day. It also gave an LOAEL (rat [14]) of 150 mg/kg/day, an NEL (rat [14]) of 50 mg/kg/day and an NOAEL (rat [14]) of 50 mg/kg/day. It also gave an NEL (dog [15]; systemic / organ weight / liver / relative to body weight + systemic / in life observation / body weight / body weight gain) of 35 mg/kg/day, an LOAEL (dog [15]; [43]) greater than 175 mg/kg/day and an NOAEL (dog [15]; [43]) of no less than 175 mg/kg/day. For the same compound, the LEL (dog [15]; systemic / organ weight / liver / relative to body weight + systemic / organ weight / liver / absolute) was 175 mg/kg/day, the LEL (dog [16]; [44]) was 35 mg/kg/day and the LOAEL (dog [16]; [44]) was 35 mg/kg/day. For the same compound, the NEL (dog [16]; [45]) was 7 mg/kg/day, the NOAEL (dog [16]; [45]) was 7 mg/kg/day and the LEL (rat [17]; [46]) was 20 mg/kg/day. It also gave an NEL (rat [17]; [46]) of less than 20 mg/kg/day, an NOAEL (rat [17]; systemic / in life observation / body weight / body weight + systemic / pathology microscopic / liver / hypertrophy + systemic / clinical …) of 20 mg/kg/day and an LOAEL (rat [17]; systemic / pathology microscopic / liver / hypertrophy) of 60 mg/kg/day. The LEL (rat [18]) was 250 mg/kg/day, the LOAEL (rat [18]) was 250 mg/kg/day and the NEL (rat [18]) was less than 250 mg/kg/day. The NOAEL (rat [18]) was less than 250 mg/kg/day, the LEL (mouse [19]; systemic / organ weight / kidney / nos) was 1000 mg/kg/day and the LOAEL (mouse [19]; [47]) was greater than 1000 mg/kg/day. For the same compound, the NEL (mouse [19]; [47]) was 500 mg/kg/day and the NOAEL (mouse [19]; [47]) was no less than 1000 mg/kg/day.
